Results published in article PMC10747602, “Dose Response, Dosimetric, and Metabolic Evaluations of Replacement PFAS Perfluoro-(2,5,8-trimethyl-3,6,9-trioxadodecanoic) Acid (HFPO-TeA)” (Toxics, 2023).
“And” between values parts separate entries of the source, which are not always exact repeats. Equal entries are not always repeated. Where two headings read alike, the source gives them in different places.

Test: Plasma HFPO-TeA dosimetry
Format: in vivo, Sprague Dawley rats
Description: Whole blood was collected from the retro-orbital plexus under isoflurane anesthesia 2 h following the first dose and by cardiac puncture 24 h after the last dosage. Blood was stored in anticoagulant potassium ethylenediaminetetraacetic acid (K3EDTA)-coated vacutainers, and then processed to isolate plasma via centrifugation. Animals were euthanized via carbon dioxide asphyxiation and subsequent exsanguination. Liver was collected, weighed, cubed, and divided into three aliquots. One aliquot of tissue was flash-frozen in liquid nitrogen and stored at −80 °C for analytical chemistry analyses. The remaining two aliquots were placed in RNALater and frozen for use in the companion transcriptomic study. Liver and plasma samples were received at the U.S. EPA Center for Computational Toxicology and Exposure, Advanced Analytical Chemistry Methods Branch in Research Triangle Park, North Carolina, USA, and stored at −80 °C prior to extraction.
Detailed information on the procedure, chemicals, and materials used in the plasma HFPO-TeA dosimetry work can be found in Supplementary Text S4 and Table S3. Plasma preparation (2 h and 5 days) was modified from Conley et al.’s work and is detailed in Supplementary Text S4 [45]. Briefly, aliquots (25 µL) were mixed with methanol (MeOH) and water (H2O) containing 0.1 M FA, spiked with the internal standard perfluorohexadecanoic acid (PFHxDA), and then denatured plasma proteins were precipitated using ACN. Samples were held at −20 °C then centrifuged for separation of the supernatant. Supernatants were collected and stored at −20 °C prior to analysis.
Targeted analysis of HFPO-TeA was conducted on a Sciex X500R QTOF liquid chromatography/mass spectrometer system operated in high-resolution MRM negative ion ESI mode. A Phenomenex C18 column (Kinetex XB-C18, 100 × 2.1 mm, particle size 2.6 µm) was used for chromatographic separation with the flow rate set to 0.2 mL/min and a temperature of 40 °C. […] Ammonium formate (4 mM) was added to both eluents. Additional details of the instrument parameters are provided in Table S8 and monitored transitions in Table S9. Matrix blanks were analyzed with each sample set. Statistical analysis is described in Supplementary Text S3. Normalization calculations are described in Supplementary Text S5 [47, 48].
All in vivo results values are reported as mean ± one standard deviation (SD). Statistical evaluation of in vivo data was conducted using a two-way analysis of variance (ANOVA) and Dunnett’s Test, both at α = 0.05 significance level, on GraphPad Prism v9.5.1.
Support ing Text S4: Plasma Dosimetry Chemicals, Materials, and Analysis Sprague Dawley rodent plasma (pooled, mixed sex) collected with ethylenediaminetetraacetic acid (EDTA) and sterile filtered (0.2 µm) was obtained from BioIVT (Westbury, NY, USA) and stored at -80 °C until use as the control matrix for generating calibration curves and as the matrix blank during plasma sample analysis. The HFPO-TeA (98.97% pure) used for calibration curve preparation was obtained from Oakwood Products Inc. (West Columbia, South Carolina, USA). Unlabeled perfluorohexadecanoic acid (CASRN 67905-19-5 | DTXSID1070800 | PFHxDA; ≥ 98% pure) was obtained from Cambridge Isotope Laboratories (Tewksbury, MA, USA) to serve as the internal standard since a labeled HFPO-TeA standard was not commercially available.
Aliquots (25 µL) were denatured with MeOH and H2O containing 0.1 M FA and then crashed using ACN. Volumes of MeOH, FA, and ACN were determined by the anticipated sample concentrations of […]
HFPO-TeA/mL plasma = 100 µL MeOH + 875 µL FA then 50 µL subsample removed and crashed with 950 µL ACN. Anticipated sample ranges were intentionally overlapped to account for HFPO-TeA concentration differences due to biological variability among the dose groups. The internal standard PFHxDA was added prior to the ACN crash. Samples were vortexed after the addition of each solvent. […]

O=C(O)C(F)(OC(F)(F)C(F)(OC(F)(F)C(F)(OC(F)(F)C(F)(F)C(F)(F)F)C(F)(F)F)C(F)(F)F)C(F)(F)F (stereo not drawn) [HFPO-TeA, perfluoro-(2,5,8-trimethyl-3,6,9-trioxadodecanoic) acid]
Plasma Conc. (0.3 mg/kg/day, F, 2 hours, individual rats): 0.124 µg/mL and 0.187 µM and 0.0778 µg/mL and 0.117 µM and 0.0785 µg/mL and 0.119 µM | 5D Plasma Conc. (0.3 mg/kg/day, F, 5 days of exposure, mean ± SD n=4): 0.854 ± 0.086 µM | Plasma Conc. (0.3 mg/kg/day, F, 5 days, individual rats): 0.492 µg/mL and 0.743 µM and 0.622 µg/mL and 0.939 µM | Plasma Conc. (0.3 mg/kg/day, M, 2 hours, individual rats): 0.094 µg/mL and 0.142 µM and 0.086 µg/mL and 0.129 µM and 0.101 µg/mL and 0.153 µM | 5D Plasma Conc. (0.3 mg/kg/day, M, 5 days of exposure, mean ± SD n=4): 0.827 ± 0.071 µM | concentration at 5 days (0.3 mg/kg/day, M, 5 days of exposure, mean ± SD n=4, read-out: 5D Plasma Conc.): 827 nM | Plasma Conc. (0.3 mg/kg/day, M, 5 days, individual rats): 0.586 µg/mL and 0.885 µM and 0.567 µg/mL | Plasma Conc. (0.9 mg/kg/day, F, 2 hours, individual rats): 0.309 µg/mL and 0.467 µM and 0.418 µg/mL and 0.631 µM and 0.392 µg/mL and 0.592 µM | Plasma Conc. (0.9 mg/kg/day, M, 2 hours, individual rats): 0.291 µg/mL and 0.439 µM and 0.450 µg/mL and 0.679 µM and 0.345 µg/mL and 0.521 µM | 5D Plasma Conc. (0.9 mg/kg/day, M, 5 days of exposure, mean ± SD n=4): 2.73 ± 0.45 µM | concentration at 5 days (0.9 mg/kg/day, M, 5 days of exposure, mean ± SD n=4, read-out: 5D Plasma Conc.): 2730 nM | Plasma Conc. (0.9 mg/kg/day, M, 5 days, individual rats): 1.45 µg/mL and 2.19 µM and 2.16 µg/mL and 3.26 µM and 1.75 µg/mL and 2.65 µM | Plasma Conc. (2.3 mg/kg/day, F, 2 hours, individual rats): 6.87 µg/mL and 10.4 µM and 7.78 µg/mL and 11.7 µM and 10.8 µg/mL and 16.3 µM and 14.6 µg/mL and 22.1 µM | Plasma Conc. (2.3 mg/kg/day, M, 2 hours, individual rats): 11.4 µg/mL and 17.3 µM and 8.06 µg/mL and 12.2 µM and 7.45 µg/mL and 11.3 µM | Plasma Conc. (2.3 mg/kg/day, M, 5 days, individual rats): 3.35 µg/mL and 5.06 µM and 3.50 µg/mL and 5.29 µM and 5.04 µg/mL and 7.61 µM | Plasma Conc. (6.3 mg/kg/day, F, 2 hours, individual rats): 19.5 µg/mL and 29.5 µM and 43.9 µg/mL and 66.4 µM and 41.1 µg/mL and 62.0 µM and 36.3 µg/mL and 54.9 µM | 5D Plasma Conc. (6.3 mg/kg/day, F, 5 days of exposure, mean ± SD n=4): 52.6 ± 14.3 µM | Plasma Conc. (6.3 mg/kg/day, M, 2 hours, individual rats): 24.4 µg/mL and 36.8 µM and 17.1 µg/mL and 25.8 µM and 24.9 µg/mL and 37.7 µM | Plasma Conc. (6.3 mg/kg/day, M, 5 days, individual rats): 15.5 µg/mL and 15.1 µg/mL and 22.9 µM and 23.8 µM and 18.5 µg/mL and 28.0 µM | 2 h Plasma Conc. (17 mg/kg/day, F, 2 h after first dose, mean ± SD n=4): 224 ± 76 µM | Plasma Conc. (17 mg/kg/day, F, 2 hours, individual rats): 197 µg/mL and 298 µM and 184 µg/mL and 278 µM and 94.0 µg/mL and 142 µM and 118 µg/mL and 179 µM | 5D Plasma Conc. (17 mg/kg/day, F, 5 days of exposure, mean ± SD n=4): 278 ± 28 µM | 2 h Plasma Conc. (17 mg/kg/day, M, 2 h after first dose, mean ± SD n=4): 126 ± 62 µM | Plasma Conc. (17 mg/kg/day, M, 2 hours, individual rats): 60.6 µg/mL and 91.6 µM and 55.8 µg/mL and 84.3 µM and 73.0 µg/mL and 110 µM and 218 µM | 5D Plasma Conc. (17 mg/kg/day, M, 5 days of exposure, mean ± SD n=4): 168 ± 53 µM | concentration at 5 days (17 mg/kg/day, M, 5 days of exposure, mean ± SD n=4, read-out: 5D Plasma Conc.): 168000 nM | Plasma Conc. (17 mg/kg/day, M, 5 days, individual rats): 65.4 µg/mL and 98.9 µM and 109 µg/mL and 165 µM and 150 µg/mL and 227 µM and 118 µg/mL and 179 µM | concentration at 2 h (female, Sprague Dawley, rat, plasma, oral, 0.3 mg/kg/day, F, 2 h after first dose, mean ± SD n=4, read-out: 2 h Plasma Conc.): 0.137 ± 0.033 µM | concentration at 2 h (female, Sprague Dawley, rat, plasma, oral, 0.3 mg/kg/day, F, 2 hours, individual rats, read-out: Plasma Conc.): 82 ng/mL and 124 nM | concentration at 5 days (female, Sprague Dawley, rat, plasma, oral, 0.3 mg/kg/day, F, 5 days, individual rats, read-out: Plasma Conc.): 550 ng/mL and 831 nM | concentration at 2 h (female, Sprague Dawley, rat, plasma, oral, 0.9 mg/kg/day, F, 2 h after first dose, mean ± SD n=4, read-out: 2 h Plasma Conc.): 0.62 ± 0.133 µM | concentration at 2 h (female, Sprague Dawley, rat, plasma, oral, 0.9 mg/kg/day, F, 2 hours, individual rats, read-out: Plasma Conc.): 523 ng/mL and 790 nM | concentration at 5 days (female, Sprague Dawley, rat, plasma, oral, 0.9 mg/kg/day, F, 5 days of exposure, mean ± SD n=4, read-out: 5D Plasma Conc.): 3620 ± 910 nM | concentration at 5 days (female, Sprague Dawley, rat, plasma, oral, 0.9 mg/kg/day, F, 5 days, individual rats, read-out: Plasma Conc.): 1870 ng/mL and 2.83 µM | concentration at 2 h (female, Sprague Dawley, rat, plasma, oral, 2.3 mg/kg/day, F, 2 h after first dose, mean ± SD n=4, read-out: 2 h Plasma Conc.): 15.1 ± 5.3 µM | concentration at 5 days (female, Sprague Dawley, rat, plasma, oral, 2.3 mg/kg/day, F, 5 days of exposure, mean ± SD n=4, read-out: 5D Plasma Conc.): 8920 ± 2360 nM | concentration at 5 days (female, Sprague Dawley, rat, plasma, oral, 2.3 mg/kg/day, F, 5 days, individual rats, read-out: Plasma Conc.): 5700 ng/mL and 8.62 µM | concentration at 2 h (female, Sprague Dawley, rat, plasma, oral, 6.3 mg/kg/day, F, 2 h after first dose, mean ± SD n=4, read-out: 2 h Plasma Conc.): 53.2 ± 16.5 µM | concentration at 5 days (female, Sprague Dawley, rat, plasma, oral, 6.3 mg/kg/day, F, 5 days of exposure, mean ± SD n=4, read-out: 5D Plasma Conc.): 52600 ± 14300 nM | concentration at 5 days (female, Sprague Dawley, rat, plasma, oral, 6.3 mg/kg/day, F, 5 days, individual rats, read-out: Plasma Conc.): 33900 ng/mL and 51.2 µM | concentration at 2 h (female, Sprague Dawley, rat, plasma, oral, 17 mg/kg/day, F, 2 h after first dose, mean ± SD n=4, read-out: 2 h Plasma Conc.): 224 ± 76 µM | concentration at 5 days (female, Sprague Dawley, rat, plasma, oral, 17 mg/kg/day, F, 5 days, individual rats, read-out: Plasma Conc.): 200000 ng/mL and 302 µM | concentration at 2 h (male, Sprague Dawley, rat, plasma, oral, 0.3 mg/kg/day, M, 2 h after first dose, mean ± SD n=4, read-out: 2 h Plasma Conc.): 0.15 ± 0.02 µM | concentration at 2 h (male, Sprague Dawley, rat, plasma, oral, 0.3 mg/kg/day, M, 2 hours, individual rats, read-out: Plasma Conc.): 117 ng/mL and 176 nM | concentration at 5 days (male, Sprague Dawley, rat, plasma, oral, 0.3 mg/kg/day, M, 5 days, individual rats, read-out: Plasma Conc.): 558 ng/mL and 843 nM | concentration at 2 h (male, Sprague Dawley, rat, plasma, oral, 0.9 mg/kg/day, M, 2 h after first dose, mean ± SD n=4, read-out: 2 h Plasma Conc.): 0.573 ± 0.113 µM | concentration at 2 h (male, Sprague Dawley, rat, plasma, oral, 0.9 mg/kg/day, M, 2 hours, individual rats, read-out: Plasma Conc.): 431 ng/mL and 651 nM | concentration at 5 days (male, Sprague Dawley, rat, plasma, oral, 0.9 mg/kg/day, M, 5 days, individual rats, read-out: Plasma Conc.): 1870 ng/mL and 2.83 µM | concentration at 2 h (male, Sprague Dawley, rat, plasma, oral, 2.3 mg/kg/day, M, 2 h after first dose, mean ± SD n=4, read-out: 2 h Plasma Conc.): 13.1 ± 2.8 µM | concentration at 2 h (male, Sprague Dawley, rat, plasma, oral, 2.3 mg/kg/day, M, 2 hours, individual rats, read-out: Plasma Conc.): 7650 ng/mL and 11.6 µM | concentration at 5 days (male, Sprague Dawley, rat, plasma, oral, 2.3 mg/kg/day, M, 5 days of exposure, mean ± SD n=4, read-out: 5D Plasma Conc.): 6640 ± 1730 nM | concentration at 5 days (male, Sprague Dawley, rat, plasma, oral, 2.3 mg/kg/day, M, 5 days, individual rats, read-out: Plasma Conc.): 5680 ng/mL and 8.58 µM | concentration at 2 h (male, Sprague Dawley, rat, plasma, oral, 6.3 mg/kg/day, M, 2 h after first dose, mean ± SD n=4, read-out: 2 h Plasma Conc.): 34 ± 5.5 µM | concentration at 2 h (male, Sprague Dawley, rat, plasma, oral, 6.3 mg/kg/day, M, 2 hours, individual rats, read-out: Plasma Conc.): 23700 ng/mL and 35.8 µM | concentration at 5 days (male, Sprague Dawley, rat, plasma, oral, 6.3 mg/kg/day, M, 5 days of exposure, mean ± SD n=4, read-out: 5D Plasma Conc.): 24500 ± 2300 nM | concentration at 5 days (male, Sprague Dawley, rat, plasma, oral, 6.3 mg/kg/day, M, 5 days, individual rats, read-out: Plasma Conc.): 23300 nM | concentration at 2 h (male, Sprague Dawley, rat, plasma, oral, 17 mg/kg/day, M, 2 h after first dose, mean ± SD n=4, read-out: 2 h Plasma Conc.): 126 ± 62 µM
